Results: PMC9601927 (Foods, 2022)

Assays:
GLUT2 = experiment: siRNA-mediated knockdown of GLUT2 in Caco-2 cells (RT-PCR, Western blot); type: cell-based; details: 72 h post-transfection
Experimental: (§1) To examine the effect of sGLT1 and GLUT2 on ANC transmembrane transport in more detail, the Caco-2 cells were transfected with siRNA targeted to sGLT1 and GLUT2 (sGLT1 siRNA-1, sGLT1 siRNA-2, sGLT1 siRNA-3, GLUT2 siRNA-1, GLUT2 siRNA-2, and GLUT2 siRNA-3) to knockdown their expression on day 18 after differentiation. The specific experimental operation was carried out according to the literature. NC siRNA was used as a negative control. The siRNA oligos and all transfection reagents were provided by Hippobio (Huzhou, China). Western blotting and real-time PCR (RT-PCR) analyses were performed to check the sGLT1 and GLUT2 expression levels after 72 h post-transfection.
(§2) According to the manufacturer’s instructions, the MiniBEST Universal RNA Extraction Kit was used to isolate the total RNA from Caco-2 cells. Table 2 lists the three specific primers. GAPDH served as an internal control. […] The 2^−ΔΔCt method was adopted to calculate the relative quantification of the target gene.
(§3) Firstly, the cells were washed twice with 1 mL of cold PBS and then lysed in 100 μL of ice-cold RIPA lysis buffer. […] Finally, the expressions of sGLT1 and GLUT2 were detected using a Western blot assay.

sGLT1 = experiment: siRNA-mediated knockdown of sGLT1 in Caco-2 cells (RT-PCR, Western blot); type: cell-based; details: 72 h post-transfection
Experimental: as §1, §2, §3

Row | Substance | reduction of GLUT2 mRNA levels (RT-PCR) (GLUT2) | silencing of GLUT2 (Western blot) after siRNA transfection (GLUT2) | expression of sGLT1 (Western blot) after siRNA transfection (sGLT1) | reduction of sGLT1 mRNA levels (RT-PCR) (sGLT1)
1 | GLUT2 siRNA-2: siRNA targeted to GLUT2: CGGGCATTCTTATTAGTCATT TGACTAATAAGAATGCCCGTT (CGGGCATTCTTATTAGTCATTTGACTAATAAGAATGCCCGTT; chemistry not given here) | 75% | most effective segment | – | –
2 | sGLT1 siRNA-3: siRNA targeted to sGLT1: GGAGCGTATTGACCTGGATTT ATCCAGGTCAATACGCTCCTT (GGAGCGTATTGACCTGGATTTATCCAGGTCAATACGCTCCTT; chemistry not given here) | – | – | significantly reduced | 85%
